Measured values taken from article PMC7076669 (Pharmaceutics, 2020).
In brackets after ≈: the same amount, converted by molar mass. Like-named read-outs stand apart in the source and are kept apart here.

Tests used:
[1] = Visual solubility of ibuprofen in liquid excipients; type: physicochemical; conditions: for Ibuprofen Solubility in Excipient: visual solubility
Protocol: In this method, the excipients were accurately weighed (2.5 g) in individually-labelled 20 mL scintillation vials. […] Further, the vials were placed in a shaking water bath (Fisher Scientific, Waltham, MA, USA) maintained at 25 °C for at least 15 min to allow proper mixing.

[2] = cited from earlier work
[3] = in MCT 70 (medium chain triglycerides), 25 °C
[4] = in oleyl alcohol (Kollicream OA), 25 °C
[5] = in propylene glycol (Kollicream PG), 25 °C

Ibuprofen solubility, Percentage ([1]; in Kolliphor PS 80, 25 °C): 18%
Ibuprofen Solubility in Excipient ([1]; in Kolliphor PS 80, 25 °C): 180 mg/g
Ibuprofen solubility, Percentage [1, 3]: 14%
Ibuprofen Solubility in Excipient [1, 3]: 140 mg/g
Ibuprofen solubility, Percentage ([1]; in PEG 400, 25 °C): 19%
Ibuprofen Solubility in Excipient ([1]; in PEG 400, 25 °C): 190 mg/g
Ibuprofen solubility, Percentage ([1]; in Transcutol, 25 °C): 30%
Ibuprofen Solubility in Excipient ([1]; in Transcutol, 25 °C): 300 mg/g
Ibuprofen solubility, Percentage ([1]; in glycerol, 25 °C): 0.4%
Ibuprofen Solubility in Excipient ([1]; in glycerol, 25 °C): 4 mg/g
Ibuprofen solubility, Percentage ([1]; in isopropyl myristate, 25 °C): 20%
Ibuprofen Solubility in Excipient ([1]; in isopropyl myristate, 25 °C): 200 mg/g
Ibuprofen solubility, Percentage ([1]; in mineral oil, 25 °C): 6%
Ibuprofen Solubility in Excipient ([1]; in mineral oil, 25 °C): 60 mg/g
Ibuprofen solubility, Percentage [1, 4]: 18%
Ibuprofen Solubility in Excipient [1, 4]: 180 mg/g
Ibuprofen solubility, Percentage [1, 5]: 30%
Ibuprofen Solubility in Excipient [1, 5]: 300 mg/g
Structure (SMILES): CC(C)Cc1ccc(C(C)C(=O)O)cc1 (stereo not drawn) [Ibuprofen, α-methyl-4-(2-methylpropyl) benzeneacetic acid]
aqueous solubility ([2]; pH 4.5): 0.084 µg/mL (≈ 0.407 µM)
aqueous solubility ([2]; pH 5.54): 0.685 µg/mL (≈ 3.32 µM)
